Measurements reported in patent US10226453B2, “3-(1H-indol-2-yl)-1H-pyrazolo[4,3-B]pyridines and therapeutic uses thereof” (Samumed, LLC, priority 2015, dated 2019).

Legend:
[1] = tested on: Wnt activity (Sp5-Luc reporter, SW480 colon carcinoma cells); experiment: Wnt activity screening assay: Sp5-Luc reporter gene in SW480 colon carcinoma cells; type: cell-based; conditions: Homo sapiens; for EC50: overnight incubation, 10-point curve from 10 μM
Summary of the method: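 Luminescence (BrightGlo) was normalised to DMSO-only wells and fitted with a four-parameter variable-slope model for EC50; beyond 10 μM, % inhibition at 10 μM is given. Stable Sp5-Luc SW480 reporter cells, 4,000/well in 1% FBS, were exposed overnight at 37 °C to compounds, top 10 μM, 1:3 dilutions, 0.1% DMSO.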

[2] = tested on: primary human fibroblasts derived from IPF patients (LL29 cells) treated with TGF-β1; experiment: Inhibition of the fibrotic process: αSMA staining in TGF-β1 treated primary human fibroblasts from IPF patients (LL29 cells); type: cell-based; conditions: Fibroblast, 96 h, TGF-β1 20 ng/mL, 4 days, % αSMA positive cells
Summary of the method: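 Compound dilutions from 10 μM down to […] are dispensed, LL29 cells added in F12 with 1% FBS, and TGF-β1 (20 ng/mL) follows after 1 h. After 4 days, live-cell αSMA positivity is measured by immunofluorescence and normalized to TGF-β1-treated wells to derive EC50.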

EC50 [1] [nM]	Structure (SMILES)	EC50 [2] [nM]	inhibition at 10 µM ([1]; given where EC50 >10 μM, 10 μM, read-out: percent inhibition at 10 μM) [%]
2930	CC(C)(C)C(=O)Nc1cncc(-c2ccc3[nH]nc(-c4cc5c(-c6cccc(F)c6)cccc5[nH]4)c3n2)c1 [Compound 8, N-(5-(3-(4-(3-Fluorophenyl)-1H-indol-2-yl)-1H-pyrazolo[4,3-b]pyridin-5-yl)pyridin-3-yl)pivalamide]	3670	–
362	CN(C)Cc1cncc(-c2ccc3[nH]nc(-c4cc5c(-c6ccc(F)cc6)cccc5[nH]4)c3n2)c1 [Compound 41, 1-(5-(3-(4-(4-Fluorophenyl)-1H-indol-2-yl)-1H-pyrazolo[4,3-b]pyridin-5-yl)pyridin-3-yl)-N,N-dimethylmethanamine]	544	–
> 10000	Fc1ccccc1-c1cccc2[nH]c(-c3n[nH]c4ccc(-c5cncc(CNCc6ccccc6)c5)nc34)cc12 [Compound 80, N-Benzyl-1-(5-(3-(4-(2-fluorophenyl)-1H-indol-2-yl)-1H-pyrazolo[4,3-b]pyridin-5-yl)pyridin-3-yl)methanamine]	2490	44
415	CN(C)Cc1cncc(-c2ccc3[nH]nc(-c4cc5c(-c6cccnc6)cccc5[nH]4)c3n2)c1 [Compound 97, N,N-Dimethyl-1-(5-(3-(4-(pyridin-3-yl)-1H-indol-2-yl)-1H-pyrazolo[4,3-b]pyridin-5-yl)pyridin-3-yl)methanamine]	451	–
7160	c1cc(-c2ccncc2)c2cc(-c3n[nH]c4ccc(-c5cncc(CNCC6CCCC6)c5)nc34)[nH]c2c1 [Compound 137, 1-Cyclopentyl-N-((5-(3-(4-(pyridin-4-yl)-1H-indol-2-yl)-1H-pyrazolo[4,3-b]pyridin-5-yl)pyridin-3-yl)methyl)methanamine]	701	–

The remaining lines, values behind:

Structure (SMILES)	EC50 [1] [nM]	EC50 [2] [nM]	inhibition at 10 µM ([1]; given where EC50 >10 μM, 10 μM, read-out: percent inhibition at 10 μM) [%]
Fc1ccc(-c2cccc3[nH]c(-c4n[nH]c5ccc(-c6cncnc6)nc45)cc23)cc1 [Compound 55, 3-(4-(4-Fluorophenyl)-1H-indol-2-yl)-5-(pyrimidin-5-yl)-1H-pyrazolo[4,3-b] pyridine]	1310	890	–
Fc1ccccc1-c1cccc2[nH]c(-c3n[nH]c4ccc(-c5cncc(CN6CCCCC6)c5)nc34)cc12 [Compound 71, 3-(4-(2-Fluorophenyl)-1H-indol-2-yl)-5-(5-(piperidin-1-ylmethyl)pyridin-3-yl)-1H-pyrazolo[4,3-b]pyridine]	663	725	–
c1cncc(-c2ccc3[nH]nc(-c4cc5c(-c6cccnc6)cccc5[nH]4)c3n2)c1 [Compound 88, 5-(Pyridin-3-yl)-3-(4-(pyridin-3-yl)-1H-indol-2-yl)-1H-pyrazolo[4,3-b] pyridine]	185	88	–
Nc1cncc(-c2ccc3[nH]nc(-c4cc5c(-c6ccncc6)cccc5[nH]4)c3n2)c1 [Compound 115, 5-(3-(4-(Pyridin-4-yl)-1H-indol-2-yl)-1H-pyrazolo[4,3-b]pyridin-5-yl) pyridin-3-amine]	67	41	–
Cc1ccncc1-c1ccc2[nH]nc(-c3cc4c(-c5ccncc5)cccc4[nH]3)c2n1 [Compound 117, 5-(4-Methylpyridin-3-yl)-3-(4-(pyridin-4-yl)-1H-indol-2-yl)-1H-pyrazolo [4,3-b]pyridine]	299	197	–
c1cc(-c2ccncc2)c2cc(-c3n[nH]c4ccc(-c5cncc(CN6CCCCC6)c5)nc34)[nH]c2c1 [Compound 127, 5-(5-(Piperidin-1-ylmethyl)pyridin-3-yl)-3-(4-(pyridin-4-yl)-1H-indol-2-yl)-1H-pyrazolo[4,3-b]pyridine]	5160	8900	–
c1ccc(-c2ccc3[nH]nc(-c4cc5c(-c6ccncc6)cccc5[nH]4)c3n2)nc1 [Compound 140, 5-(Pyridin-2-yl)-3-(4-(pyridin-4-yl)-1H-indol-2-yl)-1H-pyrazolo[4,3-b] pyridine]	3060	520	–
